According to ChEMBL document CHEMBL3627683, “Effective Two-Photon Excited Photodynamic Therapy of Xenograft Tumors Sensitized by Water-Soluble Bis(arylidene)cycloalkanone Photosensitizers” (J Med Chem, 2015):
Converted amounts (≈) assume the structure as drawn. The source made the active and inactive calls. No cut-off for these calls is given here.

Legend:
[1] = Drug uptake in mitochondria of human HepG2 cells at 5 uM for 4 hrs by MitoLite NIR staining-based CLSM analysis; format: ADME; settings: hepg2, 4 h
[2] = tested on: HepG2; assay: Photocytotoxicity against human HepG2 cells assessed as cell viability preincubated for 4 hrs in dark condition followed by irradiation at 532 nm for 20 mins measured 24 hrs post incubation in dark condition by CCK-8 assay; format: functional, cell-based; settings: HepG2, light or radiation study
[3] = Octanol-water partition coefficient, log P of the compound; format: physicochemical
[4] = tested on: HepG2; assay: Photocytotoxicity against human HepG2 cells assessed as cell viability preincubated for 4 hrs in dark condition followed by irradiation at 800 nm for 10 mins measured 24 hrs post incubation in dark condition by CCK-8 assay; format: functional, cell-based; settings: HepG2, light or radiation study
[5] = Dark toxicity in human HepG2 cells assessed as cell viability measured after 24 hrs by CCK-8 assay; format: cell-based; settings: read-out: TC50
[6] = Solubility of the compound in PBS; format: physicochemical
[7] = Drug uptake in mitochondria of human HepG2 cells by MitoLite NIR staining-based CLSM analysis; format: ADME; settings: TDE = time-dependent effect
[8] = Therapeutic ratio of TC50 for human HepG2 cells to IC50 for human HepG2 cells under irradiation at […]; format: ADME, cell-based; settings: read-out: TI
[9] = Therapeutic ratio of TC50 for human HepG2 cells to IC50 for human HepG2 cells under irradiation at 800 nm; format: ADME, cell-based; settings: read-out: TI
[10] = tested on: CCRF S-180; assay: Drug uptake in mouse S180 cells implanted in BALB/c mouse at 17.5 mg/kg, iv measured at 3 to 24 hrs by CSLM analysis; format: ADME, organism-based; settings: in vivo
[11] = tested on: Mus musculus; assay: Induction of blood vessels blockage in BALB/c mouse dorsal skinfold window chamber model at 17.5 mg/kg, iv irradiated at 800 nm for 5 mins monitored by stereomicroscopic analysis; format: functional, organism-based; settings: Blood vessel
[12] = tested on: HepG2; assay: Induction of ROS generation in human HepG2 cells at 5 uM preincubated for 4 hrs followed by DCFH-DA addition for 0.5 hrs in absence of irradiation measured by CSLM; format: functional, cell-based
[13] = tested on: HepG2; assay: Induction of ROS generation in human HepG2 cells at 5 uM preincubated for 4 hrs followed by DCFH-DA addition for 0.5 hrs and irradiation at 800 nm for 10 mins measured by CLSM; format: functional, cell-based
[14] = tested on: CCRF S-180; assay: Drug uptake in mouse S180 cells implanted in BALB/c mouse at 17.5 mg/kg, iv measured within 3 hrs by CSLM analysis; format: ADME, organism-based; settings: in vivo
[15] = tested on: CCRF S-180; assay: Antitumor activity against mouse S180 cells implanted in BALB/c mouse assessed as tumor growth inhibition at 17.5 mg/kg, iv administered 3 hrs followed by irradiation at 800 nm for 25 mins measured every other day until 12 days […]; format: functional, organism-based
[16] = tested on: CCRF S-180; assay: Antitumor activity against mouse S180 cells implanted in BALB/c mouse assessed as prolongation of survival at 17.5 mg/kg, iv administered 3 hrs in the absence of irradiation measured by Kaplan-Meier analysis; format: functional, organism-based
[17] = tested on: CCRF S-180; assay: Antitumor activity against mouse S180 cells implanted in BALB/c mouse assessed as prolongation of survival at 17.5 mg/kg, iv administered 3 hrs followed by irradiation at 800 nm for 25 mins measured by Kaplan-Meier analysis; format: functional, organism-based
[18] = tested on: CCRF S-180; assay: Antitumor activity against mouse S180 cells implanted in BALB/c mouse assessed as tumor growth inhibition at 17.5 mg/kg, iv administered 3 hrs followed by irradiation at 800 nm for 25 mins measured every other day until 12 days relative to control; format: functional; settings: CCRF S-180, light or radiation study, read-out: TGI

| Compound | Drug uptake [1] | logP [3] | solubility [6] | Drug uptake [7] | Drug uptake [10] | Drug uptake [14] | IC50 [2] | IC50 [4] | CC50 at 24 h [5] | selectivity ratio [8] | selectivity ratio [9] | Activity [11] | Activity [12] | Activity [13] | TGI [15] | Activity [16] | Activity [17] | inhibition in vivo at 17.5 mg/kg [18] |
| --- | --- | --- | --- | --- | --- | --- | --- | --- | --- | --- | --- | --- | --- | --- | --- | --- | --- | --- |
| COCCOCCOCCOCCN(C)c1ccc(C=C2CC(=Cc3ccc(N(C)CCOCCOCCOCCOC)cc3)C2=O)cc1 | Active | 2.86 | 0.3 mg/mL (≈ 0.438 mM) | tde |  |  | 2.26 µM | 13.2 µM | 34 µM | 15 | 2.58 |  |  |  |  |  |  |  |
| CCN(CC)c1ccc(C=C2CC(=Cc3ccc(N(CCOCCOCCOCCOC)CCOCCOCCOCCOC)cc3)C2=O)cc1 | Active | 3.2 | 1.8 mg/mL (≈ 2.52 mM) | tde |  |  | 1.27 µM | 1.87 µM | 24 µM | 18.9 | 12.8 |  |  |  |  |  |  |  |
| COCCOCCOCCOCCOCCN(C)c1ccc(/C=C2\CC/C(=C\c3ccc(N(C)CCOCCOCCOCCOCCOC)cc3)C2=O)cc1 | Active | 2.73 | > 100 mg/mL | tde |  |  | 2.59 µM | 14.9 µM | 41.5 µM | 16 | 2.79 |  |  |  |  |  |  |  |
| COCCOCCOCCOCCOCCN(C)c1ccc(C=C2CC(=Cc3ccc(N(C)CCOCCOCCOCCOCCOC)cc3)C2=O)cc1 | Active | 2.54 | > 100 mg/mL | tde |  |  | 3.07 µM | 16.8 µM | 41.9 µM | 13.6 | 2.49 |  |  |  |  |  |  |  |

More lines, main results first:

| Drug uptake [1] | logP [3] | solubility [6] | Drug uptake [7] | Drug uptake [10] | Drug uptake [14] | Compound | IC50 [2] | IC50 [4] | CC50 at 24 h [5] | selectivity ratio [8] | selectivity ratio [9] | Activity [11] | Activity [12] | Activity [13] | TGI [15] | Activity [16] | Activity [17] | inhibition in vivo at 17.5 mg/kg [18] |
| --- | --- | --- | --- | --- | --- | --- | --- | --- | --- | --- | --- | --- | --- | --- | --- | --- | --- | --- |
| Active | 3.04 | > 100 mg/mL | tde | Not Active | Active | CCN(CC)c1ccc(C=C2CC(=Cc3ccc(N(CCOCCOCCOCCOCCOC)CCOCCOCCOCCOCCOC)cc3)C2=O)cc1 | 1.41 µM | 3.93 µM | 35.9 µM | 25.5 | 9.13 | Active | inactive | Active | inactive | inactive | Active | 43% |
| Active | 3.2 | > 100 mg/mL | tde |  |  | CCN(CC)c1ccc(/C=C2\CC/C(=C\c3ccc(N(CCOCCOCCOCCOCCOC)CCOCCOCCOCCOCCOC)cc3)C2=O)cc1 | 1.61 µM | 4.66 µM | 20.9 µM | 13 | 4.48 |  |  |  |  |  |  |  |
